Measured values as given in a melting point compilation (Tetko et al.; mined from patent text by program, amines drawn as free bases though some values may be those of a salt).

SMILES	melting point [°C]
Cc1cccc(C(=O)P2(=O)Oc3ccccc3-c3ccccc32)c1 (stereo not given)	108 to 111
COc1cccc(C#Cc2ncn3c2[C@@H]2CCCN2C(=O)c2c(Cl)cccc2-3)c1	204 to 205
CCCCCCCCCCS(=O)(=O)NC(=O)c1cnc(C(=O)O)c(OC)c1	145
Clc1cc(OCCOc2ccc3ccccc3c2)cc(Cl)c1Br	140 to 142
O=C(O)[C@@H]1CCC(=O)N1C(=O)CCC1CCCC1	135 to 138
CC(=O)NC(C)c1cc(S(N)(=O)=O)sc1S(C)(=O)=O (stereo not given)	114 to 117
NNc1c(F)cc(Cl)c2nc(Cl)sc12	162 to 180
CC(=O)c1cccc(OCCCCCC(=O)O)c1	70 to 72
COc1cc(NC(C)=O)c([N+](=O)[O-])cc1C(=O)O	186 to 188
Nc1c(Br)cc(Br)c(O)c1Br	119
BrCc1ccc(CBr)c(Br)c1	90 to 91
CN1CC(c2cc(CCc3ccccc3)cnn2)=C(O)C1=O	203 to 205
CCOC(=O)Cc1cccc(-c2nc(CCl)c(C)o2)c1	64 to 65
Cc1nc[nH]c1CSCCNC(=N)NS(N)(=O)=O	130 to 133
N#Cc1cc(C#N)cc(Oc2nccc(Oc3cc(Cl)cc(Cl)c3)n2)c1	156
COc1ccccc1OCC(O)CCN1CCN(c2ccccc2)CC1 (stereo not given)	101 to 102
CCOc1cc(O)nc(N(C)C)n1	194 to 195

SMILES	melting point [°C]
O=C(NCCCCCCCNC(=O)c1ccc(OC2CCCCC2)cc1)c1ccc(OC2CCCCC2)cc1	144 to 145
CSc1c(O[C@H]2CC[C@H](N)CC2)ccc2[nH]ncc12	138 to 140
CCNC(=N)N(C(=N)NCC)c1cc(C(C)(C)C)c2c(c1)C(C)(C)CO2	> 290
Nc1ccc(C2OCCO2)nc1	81 to 82
COc1ccccc1N1CCN(CC(O)COc2ccccc2CN)CC1 (stereo not given)	113 to 114
CC1=CC(Cl)C(Cl)(c2cc(C)no2)C=C1C(=O)O (stereo not given)	212 to 213
CCc1nc2c(-c3ccc(OC)cc3Cl)ncnc2n1C(C1CC1)C1CC1	139 to 140
O=C1c2c(Cl)cccc2-n2cnc(C#Cc3ccccc3)c2[C@@H]2CCCN12	241 to 242
CCOCc1nc2c(N)nc3cc(-n4ccccc4=O)ccc3c2n1CCCOC(C)C	161 to 164
CCOC(=O)CCC=Cc1ccc2ccccc2c1O	63 to 64
Cn1c(C(F)(F)F)cc(=O)n(-c2ccc(Cl)c3c2OC(C)(C)C3=O)c1=O	177 to 178
O=C1c2c(O)cccc2C(C(=O)C2CCCCC2)c2cccc(O)c21	220
CCOC(=O)C(=O)Nc1cc(NC(=O)C(=O)OCC)c(OC)nc1OC	170 to 173
C=CCCC(=O)N1CCc2nnc(N(C)N)cc2C1	128 to 130
Cc1cccc(C)c1-n1cc(C#N)c(=O)[nH]c1=O	267 to 269
CCc1cccc(CNC[C@@H](O)[C@H](Cc2cc(F)cc(F)c2)NC(=O)CC2CCCC(=O)C2)c1 (stereo not given in full)	140 to 150
O=C(NC1CCC(CCN2CCC(c3cccc4c3CCO4)CC2)CC1)C1CC1(F)F (stereo not given)	199

Results, then the molecule that gave them:

melting point [°C]	SMILES
222 to 225	NC(=O)CNC(=O)c1cc2c(Oc3ccc(Cl)cc3)cncc2s1
242	O=C(Nc1cc(Cl)ccc1S(=O)(=O)c1ccccc1)N[C@@H](Cc1ccc(NC(=O)c2c(Cl)cccc2Cl)cc1)C(=O)O
115 to 118	COC(=O)Cc1ccc(-c2ccc(O)cc2)c(F)c1
101 to 103	COC(=O)NCc1cc(C(C)=NOCc2ccc(F)cc2)ccc1Cl
216 to 217	O=C(c1ccc(CNc2nc(-c3ccccc3)nc3ccccc23)cc1)N1CCN(c2ncc(Cc3ccccc3)cn2)CC1
131 to 133	C[C@@H](Oc1c(Br)cc(-c2c3ccccc3c(Br)c3sc4ccccc4c23)cc1Br)C(=O)O
182 to 184	CCOC(=O)c1ncc2[nH]c3cccc(Cc4ccccc4Cl)c3c2c1COC
199 to 200	CCCCOc1c(N(C)C(=O)OC(C)(C)C)n(CC(C)C)c(=O)c2ccc(-n3cnnn3)cc12
113 to 116	Nc1ccccc1NS(=O)(=O)c1cc(C(=O)O)cc(NCc2ccccc2)c1Oc1ccccc1
257 to 260	O=C(Nc1ccc(C(=O)N2Cc3cccn3Cc3ccccc32)cc1)c1ccccc1F
205 to 207	COc1ccc(C2c3c(C)c(N4CCN(c5ccc(OC)cc5)CC4)c(C)c(C)c3OC2(C)C)cc1 (stereo not given)
101 to 102	COc1ccc(CNC(=O)c2ccccc2)cc1OC
130 to 132	CCN(CC)CC(=O)c1cc(C(=O)c2ccc3ccccc3c2)cn1C
262	CC(C)(C)OC(=O)n1ccc(-c2ccc(F)cc2)c1-c1ccc(S(C)(=O)=O)cc1
200 to 201	CC(C)(C)c1cc(-c2csc(CNC(=O)c3ccccc3)n2)cc(C(C)(C)C)c1O
120	COCc1cc(-c2ccccc2)c(=O)n2c1-c1sccc1CC2
131	CC(C)(C#N)c1cc(CSc2ccc(O)c(Cl)c2)cc(Cn2cncn2)c1
177 to 180	CCCc1c(OC(C(=O)O)c2ccc(Cl)c(Cl)c2)ccc(C(C)=O)c1O (stereo not given)

melting point [°C]	SMILES
179	COc1cccc(N(CC(=O)N(C)c2ccccc2)C(=O)CNC(=O)Nc2cccc(C)c2)c1
106	Cc1cc(O)ccc1-c1cc2ccccc2[nH]1
206 to 208	CCCOc1ccc(-c2ccc3c(c2)C=C(C(=O)Nc2ccc(CN(C)C4CCOCC4)cc2)CCS3(=O)=O)cc1OCCC
59 to 61	CCOC(=O)c1c(C)nn(-c2ccccc2N)c1C
334 to 335	O=P(O)(O)COc1c(Br)cc(-c2c3ccccc3c(Br)c3sc4ccccc4c23)cc1Br
224	CC(C)NOC(=O)c1n[nH]c2c(=O)[nH]c3cc(Cl)ccc3c(=O)c12
112	CN(CCCCCCCNC(=O)NCCCOc1cccc(CN2CCCCC2)c1)CCN(Cc1ccc(F)cc1)c1ccccn1
108 to 110	CS(=O)(=O)c1ccc(-n2nc(C(F)(F)F)cc2-c2ccc(-c3cscn3)c(Cl)c2)cc1F
117 to 120	O=C(C=C1CCN(CCc2ccc(F)cc2)CC1)NCc1ccc(F)c(F)c1
162 to 163	CCCCc1nc2ccccc2n1Cc1ccc(-c2ccccc2CO)cc1
215 to 217	O=C1COc2ccc(C3=Cc4ccc(NCCCO)cc4OC3c3ccccc3)cc2N1 (stereo not given)
65 to 67	ClC=C(c1ccc(Cl)cc1)c1ccc(Cl)cc1
103 to 105	N=C(OCc1ccc(Cl)cc1)N1Cc2ccccc2-c2ccccc2C1
106 to 108	CS(=O)(=O)OCCCCC1C(=O)Nc2cc(F)ccc21 (stereo not given)
175 to 180	CC1(O)c2ccccc2-c2c1c(-n1ccnc1)nc1ccc(Br)cc21 (stereo not given)
95 to 96	Cc1cccc(C2COc3c(ccc(O)c3O)C2)c1 (stereo not given)
106	O=C(c1ccccc1)n1c(SC(F)(F)F)cc(-c2ccc(F)cc2)c1-c1ccc(F)cc1
90 to 94	COC1=C(OC)C(=O)C2=C(CC(CCCCOc3ccc(C(=O)N4CCC(c5ccccc5)CC4)cc3)C2)C1=O
